Marks after values point to notes of the source that are not given here.
Tests used:
[1] = LC-MS determination in the acidic range, pH 2.7, 0.1% aqueous formic acid and acetonitrile
Phytophthora infestans = type: in vivo; conditions: young tomato plants sprayed, active ingredient concentration of 100 (unit not given); inoculated 1 day after treatment; evaluation 7 days after inoculation; 100% = no infection
Plasmopara viticola = assay: Plasmopara test (grapevine) / protective; type: in vivo; conditions: young grapevine plants sprayed, active ingredient concentration 10 ppm; evaluation 6 days after inoculation; 100% = no infection
Experimental: Plasmopara Test (Grapevine)/Protective
To produce an appropriate active ingredient formulation, 1 part by weight of active ingredient is mixed with the specified amounts of solvent and emulsifier, and the concentrate is diluted with water to the desired concentration.
To test for protective efficacy, young plants are sprayed with the active ingredient formulation at the stated application rate. After the spray coating has dried on, the plants are inoculated with an aqueous spore suspension of Plasmopara viticola and then remain in an incubation cabin at approx. 20° C. and 100% relative air humidity for 1 day. Subsequently, the plants are placed in a greenhouse at approx. 21° C. and approx. 90% air humidity for 4 days. The plants are then moistened and placed in an incubation cabin for 1 day.
Evaluation follows 6 days after the inoculation. 0% means an efficacy which corresponds to that of the control, whereas an efficacy of 100% means that no infection is observed.
In this test, the following inventive compounds show, at an active ingredient concentration of 10 ppm, an efficacy of 70% or more: […]

| Compound | Log P [a] [1] | % eff. (Phytophthora infestans) | % eff. (Plasmopara viticola) |
| --- | --- | --- | --- |
| Cc1ccc(Cl)cc1NC(=O)N1CCC(c2nc(C3=NOC(COc4ccccc4)C3)cs2)CC1 (stereo not drawn) [I-33] | 3.54 | 100% |  |
| Cc1ccccc1OCC1CC(c2csc(C3CCN(C(=O)Cn4nc(C(F)F)cc4C(F)F)CC3)n2)=NO1 (stereo not drawn) [I-13] | 3.5 | 100% |  |
| O=C(Cn1nc(C(F)F)cc1C(F)F)N1CCC(c2nc(C3=NOC(COc4ccccc4Cl)C3)cs2)CC1 (stereo not drawn) [I-71] | 3.35 | 100% | 100% |
| Cc1cc(C(F)(F)F)nn1CC(=O)N1CCC(c2nc(C3=NOC(C(F)c4c(F)cccc4F)C3)cs2)CC1 (stereo not drawn) [I-20] | 3.48^[a] | 95% | 93% |
| COc1ccc(C)cc1NC(=O)N1CCC(c2nc(C3=NOC(COc4ccccc4)C3)cs2)CC1 (stereo not drawn) [I-38] | 3.59 | 100% |  |
| CON=Cc1ccccc1OCC1CC(c2csc(C3CCN(C(=O)Cn4nc(C(F)F)cc4C(F)F)CC3)n2)=NO1 (mixture of isomers) [I-60] | 3.39^[a]; 3.39^[b] | 94% |  |
| O=C(Cn1nc(C(F)F)cc1C(F)F)N1CCC(c2nc(C3=NOC(CSc4c(Cl)cccc4Cl)C3)cs2)CC1 (stereo not drawn) [I-58] | 3.99 | 94% | 100% |
| O=Cc1ccccc1OCC1CC(c2csc(C3CCN(C(=O)Cn4nc(C(F)F)cc4C(F)F)CC3)n2)=NO1 (stereo not drawn) [I-73] | 2.83^[a]; 2.83^[b] | 90% |  |
| CC(C)(c1ccccc1)C1CC(c2csc(C3(F)CCN(C(=O)Cn4nc(C(F)F)cc4C(F)F)CC3)n2)=NO1 (stereo not drawn) [I-11] | 4.03^[a] | 95% |  |
| FC(F)c1cc(C(F)F)n(CC(=S)N2CCC(c3nc(C4=NOC(COc5ccccc5)C4)cs3)CC2)n1 (stereo not drawn) [I-34] | 3.73 | 100% | 96% |
| CN(CC1CC(c2csc(C3CCN(C(=O)Cn4nc(C(F)F)cc4C(F)F)CC3)n2)=NO1)c1ccccc1 (stereo not drawn) [I-14] | 3.47 | 95% |  |
| O=C(Cc1cc(Cl)ccc1Cl)N1CCC(c2nc(C3=NOC(COc4ccccc4)C3)cs2)CC1 (stereo not drawn) [I-23] | 3.89 | 95% | 89% |
| O=C(Cn1nc(C(F)F)cc1C(F)F)N1CCC(c2nc(C3=NOC(C(F)(F)c4cccs4)C3)cs2)CC1 (stereo not drawn) [I-57] | 3.33^[a] | 95% | 100% |
| Cc1cc(C(F)(F)F)nn1CC(=O)N1CCC(c2nc(C3=NOC(COc4c(F)cccc4Cl)C3)cs2)CC1 (stereo not drawn) [I-46] | 3.54 | 95% | 98% |
| O=C(Cn1nc(C(F)F)cc1C(F)F)N1CCC(c2nc(C3=NOC(C(F)c4c(F)cccc4F)C3)cs2)CC1 (stereo not drawn) [I-17] | 3.36^[a] | 95% | 100% |
| Cc1cc(C(F)(F)F)nn1CC(=O)N1CCC(c2nc(C3=NOC(COc4c(Cl)cccc4Cl)C3)cs2)CC1 (stereo not drawn) [I-65] | 3.9 | 84% | 100% |
| CC(C)(c1c(F)cccc1Cl)C1CC(c2csc(C3CCN(C(=O)Cn4nc(C(F)F)cc4C(F)F)CC3)n2)=NO1 (stereo not drawn) [I-69] | 4.32 | 94% | 95% |
| O=C(Nc1cc(C(F)F)ccc1C(F)F)N1CCC(c2nc(C3=NOC(C(F)(F)c4c(F)cccc4F)C3)cs2)CC1 (stereo not drawn) [I-35] | 3.61^[a] | 95% | 100% |
| O=C(Cn1nc(C(F)F)cc1C(F)F)N1CCC(c2nc(C3=NOC(CS(=O)(=O)c4ccccc4)C3)cs2)CC1 (stereo not drawn) [I-7] | 2.65^[a]; 2.65^[b] | 100% | 96% |
| Cc1ccc(C)c(NC(=O)N2CCC(c3nc(C4=NOC(COc5ccccc5)C4)cs3)CC2)c1 (stereo not drawn) [I-41] | 3.36 | 100% | 94% |

| Compound | Log P [a] [1] | % eff. (Phytophthora infestans) | % eff. (Plasmopara viticola) |
| --- | --- | --- | --- |
| Cc1ccc(C)c(CC(=O)N2CCC(c3nc(C4=NOC(COc5ccccc5)C4)cs3)CC2)c1 (stereo not drawn) [I-29] | 3.71 | 100% | 78% |
| COc1cccc(C=O)c1OCC1CC(c2csc(C3CCN(C(=O)Cn4nc(C(F)F)cc4C(F)F)CC3)n2)=NO1 (stereo not drawn) [I-72] | 3.02 | 95% | 81% |
| CC(C)(c1c(F)cccc1F)C1CC(c2csc(C3CCN(C(=O)Nc4cc(C(F)F)ccc4C(F)F)CC3)n2)=NO1 (stereo not drawn) [I-68] | 4.29 | 94% | 96% |
| O=C(Nc1cc(C(F)F)ccc1C(F)F)N1CCC(c2nc(C3=NOC(C(F)c4ccccc4)C3)cs2)CC1 (stereo not drawn) [I-24] | 3.41^[a] | 100% | 94% |
| O=C(Cn1nc(C(F)F)cc1C(F)F)N1CCC(c2nc(C3=NOC(C(F)c4ccccc4)C3)cs2)CC1 (stereo not drawn) [I-5] | 3.23^[a] | 100% | 100% |
| O=C(Cn1nc(C(F)F)cc1C(F)F)N1CCC(c2nc(C3=NOC(CSc4ccccc4)C3)cs2)CC1 (stereo not drawn) [I-10] | 3.46 | 100% | 93% |
| Cc1ccccc1SCC1CC(c2csc(C3CCN(C(=O)Cn4nc(C(F)F)cc4C(F)F)CC3)n2)=NO1 (stereo not drawn) [I-70] | 3.78 | 95% |  |
| C[Si](C)(c1ccccc1)C1CC(c2csc(C3CCN(C(=O)Cn4nc(C(F)F)cc4C(F)F)CC3)n2)=NO1 (stereo not drawn) [I-40] | 4.01 | 100% | 92% |
| O=C(Cn1nc(C(F)F)cc1C(F)F)N1CCC(c2nc(C3=NOC(COc4c(F)cccc4Br)C3)cs2)CC1 (stereo not drawn) [I-75] | 3.67 |  | 98% |
| Cc1ccc(Cl)cc1NC(=O)N1CCC(c2nc(C3=NOC(COc4c(Cl)cccc4Cl)C3)cs2)CC1 (stereo not drawn) [I-59] | 4.08^[a]; 4.08^[b] | 94% | 100% |
| Cc1cc(C(F)(F)F)nn1CC(=O)N1CCC(c2nc(C3=NOC(COc4ccccc4)C3)cs2)CC1 (stereo not drawn) [I-37] | 3.27 | 100% | 97% |
| COc1ccccc1OCC1CC(c2csc(C3CCN(C(=O)Cn4nc(C(F)F)cc4C(F)F)CC3)n2)=NO1 (stereo not drawn) [I-26] | 3.01 | 100% | 96% |
| CC(C)(c1c(F)cccc1Cl)C1CC(c2csc(C3CCN(C(=O)Nc4cc(C(F)F)ccc4C(F)F)CC3)n2)=NO1 (stereo not drawn) [I-53] | 4.53 | 91% |  |
| Cc1ccc(C)c(NC(=O)N2CCC(c3nc(C4=NOC(COc5c(Cl)cccc5Cl)C4)cs3)CC2)c1 (stereo not drawn) [I-56] | 3.89 | 94% | 100% |
| Fc1cccc(F)c1C(F)C1CC(c2csc(C3CCN(C(=S)Cn4nc(C(F)F)cc4C(F)F)CC3)n2)=NO1 (stereo not drawn) [I-18] | 3.81^[a] | 95% | 100% |
| Cc1cc(C(F)(F)F)nn1CC(=O)N1CCC(c2nc(C3=NOC(COc4c(F)cccc4F)C3)cs2)CC1 (stereo not drawn) [I-54] | 3.34 | 100% | 97% |
| Cc1ccc(C)c(NC(=S)N2CCC(c3nc(C4=NOC(C(F)(F)c5c(F)cccc5F)C4)cs3)CC2)c1 (stereo not drawn) [I-27] | 3.81^[a] | 90% | 92% |
| O=C(Cn1nc(C(F)F)cc1C(F)F)N1CCC(c2nc(C3=NOC(CSc4ccccc4F)C3)cs2)CC1 (stereo not drawn) [I-55] | 3.54 | 94% | 100% |
| O=C(Cn1nc(C(F)F)cc1C(F)F)N1CCC(c2nc(C3=NOC(C(O)(c4ccccc4)C(F)(F)F)C3)cs2)CC1 (stereo not drawn) [I-49] | 3.2 | 97% |  |
| Cc1cc(C(F)F)nn1CC(=O)N1CCC(c2nc(C3=NOC(COc4c(F)cccc4F)C3)cs2)CC1 (stereo not drawn) [I-48] | 3.01 |  | 96% |

— patent US20120122928A1 (priority 2010, published 2012)
